Source: patent publication US20240270748A1 (Merck Patent GmbH, priority 2021, published 2024)

System: YAP-TEAD interaction
Experiment: SK-HEP-1 reporter assay (8xTEAD responsive elements driving NanoLuc luciferase)
Assay type: cell-based
Settings: Homo sapiens, SK-HEP1, SK-HEP-1 reporter assay; class symbols
Method in brief: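 SK-HEP-1 cells stably carrying 8×TEAD-driven NanoLuc treated in duplicate, 10-point dose from 30 μM final, 0.3% DMSO, 24 h at 37° C. Luminescence after NanoGlo lysis/substrate addition; IC50 calculated from dose response.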

IC50 [µM]	SMILES
0.1 to 10	CCCNS(=O)(=O)c1ccc2c(c1)c1cn(C)nc1n2-c1ccc(C(F)(F)F)cc1 [Example C71, 2-methyl-N-propyl-8-[4-(trifluoromethyl)phenyl]-2H,8H-pyrazolo[3,4-b]indole-5-sulfonamide]
0.1 to 10	Cn1cc2c3cc(C(=O)N=[S@@](=O)(CCO)Cc4cccnc4)ccc3n(-c3ccc(C(F)(F)F)cc3)c2n1 (single isomer, unassigned) [Example C190]
> 10	Cn1cc2c3cc(C4CC(n5nccn5)=NO4)ccc3n(-c3ccc(C(F)(F)F)cc3)c2n1 (stereo not drawn) [Example C38, 2-(5-{2-methyl-8-[4-(trifluoromethyl)phenyl]-2H,8H-pyrazolo[3,4-b]indol-5-yl}-4,5-dihydro-1,2-oxazol-3-yl)-2H-1,2,3-triazole]
0.1 to 10	C[C@H](CO)C(=O)Nc1ccc2c(c1)c1cn(C)nc1n2-c1ccc(C(F)(F)F)cc1 [Example C154, (2R)-3-hydroxy-2-methyl-N-{2-methyl-8-[4-(trifluoromethyl)phenyl]-2H,8H-pyrazolo[3,4-b]indol-5-yl}propanamide]
0.1 to 10	C[C@@H](NC(=O)c1ccc2c(n1)c1cn(C)nc1n2-c1ccc(C(F)(F)F)cc1)c1ccccn1 [Example C114, 4-methyl-N-[(1R)-1-(pyridin-2-yl)ethyl]-7-[4-(trifluoromethyl)phenyl]-4,5,7,12-tetraazatricyclo[6.4.0.0^2,6]dodeca-1(8),2,5,9,11-pentaene-11-carboxamide]
0.1 to 10	Cn1cc2c3cc(C(=O)N=S4(=O)CCC5(CCNCC5)C4)ccc3n(-c3ccc(C(F)(F)F)cc3)c2n1 (stereo not drawn) [Example C138, 2-methyl-N-{2-oxo-2lambda6-thia-8-azaspiro[4.5]decan-2-ylidene}-8-[4-(trifluoromethyl)phenyl]-2H,8H-pyrazolo[3,4-b]indole-5-carboxamide]
0.1 to 10	Cn1cc2c3cc(C(N)=O)cnc3n(-c3ccc(C(F)(F)F)cc3)c2n1 [Example C118, 4-methyl-7-[4-(trifluoromethyl)phenyl]-4,5,7,9-tetraazatricyclo[6.4.0.0^2,6]dodeca-1(8),2,5,9,11-pentaene-11-carboxamide]
0.1 to 10	COCC[C@H](CO)NC(=O)c1ccc2c(c1)c1c(C)snc1n2-c1ccc(C(F)(F)F)cc1 (single isomer, unassigned) [Example C93]
> 10	Cn1cc2c(n1)c1cc(S(=O)(=O)N3CCC[C@@H]3c3cccnc3)ccc1n2-c1ccc(C(F)(F)F)cc1 [Example C8, 3-[(2R)-1-({2-methyl-4-[4-(trifluoromethyl)phenyl]-2H,4H-pyrazolo[4,3-b]indol-7-yl}sulfonyl)pyrrolidin-2-yl]pyridine]
0.1 to 10	Cn1cc2c3cc(C(=O)NC[C@H](O)C(F)(F)F)ccc3n(-c3ccc(C(F)(F)F)cc3)c2n1 [Example C133, 2-methyl-N-[(2S)-3,3,3-trifluoro-2-hydroxypropyl]-8-[4-(trifluoromethyl)phenyl]-2H,8H-pyrazolo[3,4-b]indole-5-carboxamide]
0.1 to 10	C[C@H](CO)NC(=O)c1ccc2c(c1)c1cn(C)nc1n2-c1ccc(F)cc1 [Example C155, 8-(4-fluorophenyl)-N-[(2R)-1-hydroxypropan-2-yl]-2-methyl-2H,8H-pyrazolo[3,4-b]indole-5-carboxamide]
0.001 to 0.01	Cn1nc2c3cc(C(=O)O)ccc3n(-c3ccc(C(F)(F)F)cc3F)c2n1 [Example C258, 4-[2-fluoro-4-(trifluoromethyl)phenyl]-2-methyl-2H,4H-[1,2,3]triazolo[4,5-b]indole-7-carboxylic acid]
0.1 to 10	Cn1cc2c(n1)c1cc(S(=O)(=O)N3CCC[C@H]3c3cncnc3)ccc1n2-c1ccc(C(F)(F)F)cc1 (single isomer, unassigned) [Example C68]
> 10	Cn1cc2c3cc(C4CC(n5ccnn5)=NO4)ccc3n(-c3ccc(C(F)(F)F)cc3)c2n1 (stereo not drawn) [Example C37, 1-(5-{2-methyl-8-[4-(trifluoromethyl)phenyl]-2H,8H-pyrazolo[3,4-b]indol-5-yl}-4,5-dihydro-1,2-oxazol-3-yl)-1H-1,2,3-triazole]
0.1 to 10	Cn1cc2c3cc(C(=O)N4CC[C@@H](O)C4)ccc3n(-c3ccc(C(F)(F)F)c(F)c3)c2n1 [Example C171, (3R)-1-{8-[3-fluoro-4-(trifluoromethyl)phenyl]-2-methyl-2H,8H-pyrazolo[3,4-b]indole-5-carbonyl}pyrrolidin-3-ol]
0.1 to 10	C[C@H](NC(=O)c1ccc2c(c1)c1cn(C)nc1n2-c1ccc(C(F)(F)F)cc1)C1CNC1 [Example C144, N-[(1S)-1-(azetidin-3-yl)ethyl]-2-methyl-8-[4-(trifluoromethyl)phenyl]-2H,8H-pyrazolo[3,4-b]indole-5-carboxamidetrifluoroacetate]
0.1 to 10	O=C(O)c1ccc2c(c1)c1cnn(C(F)(F)F)c1n2-c1ccc(C(F)(F)F)cc1 [Example C34, 1-(trifluoromethyl)-8-[4-(trifluoromethyl)phenyl]-1H,8H-pyrazolo[3,4-b]indole-5-carboxylic acid]
0.1 to 10	C[C@H](CO)NC(=O)c1ccc2c(c1)c1cn(C)nc1n2C1CC2(C1)CC(F)(F)C2 [Example C207, 8-{6,6-difluorospiro[3.3]heptan-2-yl}-N-[(2R)-1-hydroxypropan-2-yl]-2-methyl-2H,8H-pyrazolo[3,4-b]indole-5-carboxamide]
0.1 to 10	Cn1cc2c3nc(CO)ccc3n(-c3ccc(C(F)(F)F)cc3)c2n1 [Example C116, {4-methyl-7-[4-(trifluoromethyl)phenyl]-4,5,7,12-tetraazatricyclo [6.4.0.0^2,6]dodeca-1(8),2,5,9,11-pentaen-11-yl}methanol]
0.1 to 10	Cn1cc2c3cc(C(=O)NC4(CO)CCNCC4)ccc3n(-c3ccc(C(F)(F)F)cc3)c2n1 [Example C218, N-[4-(hydroxymethyl)piperidin-4-yl]-2-methyl-8-[4-(trifluoromethyl)phenyl]-2H,8H-pyrazolo[3,4-b]indole-5-carboxamide]
0.1 to 10	Cn1cc2c3cc(C(=O)N[C@H](CCO)c4cncs4)ccc3n(-c3ccc(C(F)(F)F)cc3)c2n1 (single isomer, unassigned) [Example C163]
0.1 to 10	Cn1cnc2c1c1cc(C3CC(n4ccnn4)=NO3)ccc1n2-c1ccc(C(F)(F)F)cc1 (stereo not drawn) [Example C211, 1-(5-{1-methyl-4-[4-(trifluoromethyl)phenyl]-1H,4H-imidazo[4,5-b]indol-7-yl}-4,5-dihydro-1,2-oxazol-3-yl)-1H-1,2,3-triazole]
0.1 to 10	Cn1cc2c3cc(C(=O)N=S(C)(=O)CCN)ccc3n(-c3ccc(C(F)(F)F)cc3)c2n1 (stereo not drawn) [Example C36, N-[(2-aminoethyl) (methyl)οxο-λ^6-sulfanylidene]-2-methyl-8-[4-(trifluoromethyl)phenyl]-2H,8H-pyrazolo[3,4-b]indole-5-carboxamide]
0.1 to 10	Cn1cc2c3cc(NC(=O)CNC4CCNC4)ccc3n(-c3ccc(C(F)(F)F)cc3)c2n1 (stereo not drawn) [Example C224, N-{2-methyl-8-[4-(trifluoromethyl)phenyl]-2H,8H-pyrazolo[3,4-b]indol-5-yl}-2-[{pyrrolidin-3-yl)amino]acetamide]
0.01 to 0.1	Cn1nc2c3cc(C4CC(Oc5cncnc5)=NO4)ccc3n(-c3ccc(C(F)(F)F)cc3)c2n1 (stereo not drawn) [Example C234, 5-[(5-{2-methyl-4-[4-(trifluoromethyl)-phenyl]-2H,4H-[1,2,3]triazolo[4,5-b]indol-7-yl}-4,5-dihydro-1,2-oxazol-3-yl)oxy]pyrimidine]
0.1 to 10	C=Cc1ccc2c(c1)c1c(ncn1C)n2-c1ccc(C(F)(F)F)cc1 [Example C179, 7-ethenyl-1-methyl-4-[4-(trifluoromethyl)phenyl]-1H,4H-imidazo [4,5-b]indole]

Same assay, conditions: Homo sapiens, SK-HEP1, SK-HEP-1 reporter assay; n.d. = value not detectable below threshold given in parentheses; ND = not determinable within the entire range

IC50 [µM]	SMILES
> 1	Cn1cc2c(n1)c1cc(S(=O)(=O)N3CCC[C@@H]3c3cncnc3)ccc1n2-c1ccc(C(F)(F)F)cc1 (single isomer, unassigned) [Example C61]
> 30	Cn1nnc2c3cc(S(=O)(=O)O)ccc3n(-c3ccc(C(F)(F)F)cc3)c21 [Example C44, 3-methyl-4-[4-(trifluoromethyl)phenyl]-3H,4H-[1,2,3]triazolo[4,5-b]indole-7-sulfonic acid]
> 3.2	Cn1cc2c3cc(C(=O)N=S4(=O)CCC5(CC4)CC(N)CCO5)ccc3n(-c3ccc(C(F)(F)F)cc3)c2n1 (stereo not drawn) [Example C143, N-{4-amino-9-oxo-1-oxa-9lambda6-thiaspiro[5.5]undecan-9-ylidene}-2-methyl-8-[4-(trifluoromethyl)phenyl]-2H,8H-pyrazolo[3,4-b]indole-5-carboxamide]

Same assay, conditions: SK-HEP-1 reporter assay; class symbols

IC50 [µM]	SMILES
0.1 to 10	Cc1snc2c1c1cc(C(=O)N=S(C)(=O)CCCO)ccc1n2-c1ccc(C(F)(F)F)cc1 (single isomer, unassigned) [Example C103]
